Measured values: the NIST ThermoML archive (doi:10.1016/j.jct.2010.05.009)

Tests used:
[1] = xn = mol fraction of the nth substance listed; conditions: 101 kPa, Liquid; for viscosity: Capillary tube (Ostwald / Ubbelohde) method; for mass density: Vibrating tube method
[2] = refractive index (Na D-line) (dimensionless); xn = mol fraction of the nth substance listed; conditions: 101 kPa, Liquid, Standard Abbe refractometry

CCCN [propan-1-amine] + CCC(C)(C)O
Conditions | mass density, 288.15 K [kg/m3] | mass density, 298.15 K [kg/m3] | mass density, 308.15 K [kg/m3] | refractive index, 288.15 K | refractive index, 298.15 K | refractive index, 308.15 K | viscosity, 288.15 K [mPa·s] | viscosity, 298.15 K [mPa·s] | viscosity, 308.15 K [mPa·s]
[1], x2 = 0 | 721.57 | 711.08 | 700.4 | – | – | – | 0.3851 | 0.3585 | 0.3222
[1], x2 = 0.0733 | 731.65 | 721.43 | 710.97 | – | – | – | 0.4625 | 0.4161 | 0.3822
[1], x2 = 0.1528 | 742.12 | 732.03 | 721.79 | – | – | – | 0.5521 | 0.4813 | 0.4437
[1], x2 = 0.2327 | 752 | 742.1 | 732.07 | – | – | – | 0.6938 | 0.5258 | 0.501
[1], x2 = 0.3155 | 761.54 | 751.82 | 741.93 | – | – | – | 0.8513 | 0.6157 | 0.5725
[1], x2 = 0.398 | 770.38 | 760.84 | 751.09 | – | – | – | 1.041 | 0.7142 | 0.6756
[1], x2 = 0.4888 | 779.41 | 770.02 | 760.39 | – | – | – | 1.354 | 0.8835 | 0.8338
[1], x2 = 0.5804 | 787.76 | 778.45 | 768.97 | – | – | – | 1.827 | 1.129 | 1.03
[1], x2 = 0.6697 | 795.11 | 785.88 | 776.64 | – | – | – | 2.39 | 1.468 | 1.283
[1], x2 = 0.7769 | 802.69 | 793.82 | 784.6 | – | – | – | 3.288 | 1.974 | 1.664
[1], x2 = 0.8741 | 808.3 | 799.58 | 790.43 | – | – | – | 4.258 | 2.565 | 2.03
[1], x2 = 0.9498 | 811.88 | 803.1 | 793.93 | – | – | – | 5.17 | 3.068 | 2.304
[2], x2 = 0 | – | – | – | 1.3899 | 1.3844 | 1.3784 | – | – | –
[2], x2 = 0.0733 | – | – | – | 1.392 | 1.3868 | 1.3809 | – | – | –
[2], x2 = 0.1528 | – | – | – | 1.3944 | 1.3893 | 1.3835 | – | – | –
[2], x2 = 0.2327 | – | – | – | 1.3968 | 1.3917 | 1.386 | – | – | –
[2], x2 = 0.3155 | – | – | – | 1.3989 | 1.394 | 1.3884 | – | – | –
[2], x2 = 0.398 | – | – | – | 1.4009 | 1.3961 | 1.3906 | – | – | –
[2], x2 = 0.4888 | – | – | – | 1.4028 | 1.398 | 1.3926 | – | – | –
[2], x2 = 0.5804 | – | – | – | 1.4043 | 1.3996 | 1.3944 | – | – | –
[2], x2 = 0.6697 | – | – | – | 1.4053 | 1.4005 | 1.3954 | – | – | –
[2], x2 = 0.7769 | – | – | – | 1.4058 | 1.4012 | 1.3962 | – | – | –
[2], x2 = 0.8741 | – | – | – | 1.406 | 1.4013 | 1.3964 | – | – | –
[2], x2 = 0.9498 | – | – | – | 1.4061 | 1.4014 | 1.3966 | – | – | –

CCC(C)(C)O [2-methylbutan-2-ol] + C1CCOC1
Conditions | mass density, 288.15 K [kg/m3] | mass density, 298.15 K [kg/m3] | mass density, 308.15 K [kg/m3] | refractive index, 288.15 K | refractive index, 298.15 K | refractive index, 308.15 K | viscosity, 288.15 K [mPa·s] | viscosity, 298.15 K [mPa·s] | viscosity, 308.15 K [mPa·s]
[1], x1 = 0.1028 | 881.2 | 870.63 | 859.92 | – | – | – | 0.7142 | 0.5079 | 0.4359
[1], x1 = 0.1791 | 873.29 | 862.93 | 852.42 | – | – | – | 0.895 | 0.5724 | 0.4592
[1], x1 = 0.2676 | 865.01 | 854.87 | 844.57 | – | – | – | 1.13 | 0.6232 | 0.5449
[1], x1 = 0.3601 | 857.15 | 847.22 | 837.11 | – | – | – | 1.365 | 0.7532 | 0.6428
[1], x1 = 0.45 | 850.2 | 840.46 | 830.51 | – | – | – | 1.63 | 0.8859 | 0.747
[1], x1 = 0.5402 | 843.79 | 834.19 | 824.37 | – | – | – | 1.968 | 1.064 | 0.8887
[1], x1 = 0.6295 | 837.94 | 828.48 | 818.76 | – | – | – | 2.399 | 1.288 | 1.055
[1], x1 = 0.7058 | 833.16 | 823.78 | 814.12 | – | – | – | 2.849 | 1.548 | 1.232
[1], x1 = 0.8097 | 826.96 | 817.62 | 808.01 | – | – | – | 3.623 | 2.008 | 1.548
[1], x1 = 0.8903 | 821.89 | 812.56 | 802.98 | – | – | – | 4.381 | 2.517 | 1.907
[1], x1 = 0.9629 | 816.9 | 807.57 | 798.22 | – | – | – | 5.245 | 3.052 | 2.234
[1], x1 = 1 | 814.01 | 804.88 | 795.52 | – | – | – | 5.867 | 3.478 | 2.504
[2], x1 = 0.1028 | – | – | – | 1.4076 | 1.4027 | 1.3979 | – | – | –
[2], x1 = 0.1791 | – | – | – | 1.4069 | 1.4022 | 1.3974 | – | – | –
[2], x1 = 0.2676 | – | – | – | 1.4065 | 1.4018 | 1.3972 | – | – | –
[2], x1 = 0.3601 | – | – | – | 1.4064 | 1.4018 | 1.3971 | – | – | –
[2], x1 = 0.45 | – | – | – | 1.4066 | 1.402 | 1.3972 | – | – | –
[2], x1 = 0.5402 | – | – | – | 1.4068 | 1.4022 | 1.3974 | – | – | –
[2], x1 = 0.6295 | – | – | – | 1.407 | 1.4023 | 1.3976 | – | – | –
[2], x1 = 0.7058 | – | – | – | 1.4071 | 1.4024 | 1.3977 | – | – | –
[2], x1 = 0.8097 | – | – | – | 1.4071 | 1.4024 | 1.3977 | – | – | –
[2], x1 = 0.8903 | – | – | – | 1.4069 | 1.4022 | 1.3975 | – | – | –
[2], x1 = 0.9629 | – | – | – | 1.4065 | 1.4018 | 1.3972 | – | – | –
[2], x1 = 1 | – | – | – | 1.4062 | 1.4015 | 1.3968 | – | – | –

CCCN [propan-1-amine] + C1CCOC1
Conditions | mass density, [1] [kg/m3] | refractive index, [2] | viscosity, [1] [mPa·s]
288.15 K, x2 = 0 | 721.57 | 1.3899 | 0.3851
288.15 K, x2 = 0.0542 | 730.55 | 1.3908 | 0.3898
288.15 K, x2 = 0.1599 | 748.15 | 1.3927 | 0.3991
288.15 K, x2 = 0.1934 | 753.76 | 1.3933 | 0.4021
288.15 K, x2 = 0.3199 | 775.03 | 1.3956 | 0.4138
288.15 K, x2 = 0.4 | 788.58 | 1.397 | 0.4211
288.15 K, x2 = 0.4789 | 802.01 | 1.3985 | 0.4289
288.15 K, x2 = 0.56 | 815.87 | 1.4 | 0.4371
288.15 K, x2 = 0.6402 | 829.71 | 1.4015 | 0.4455
288.15 K, x2 = 0.7201 | 843.56 | 1.4031 | 0.4546
288.15 K, x2 = 0.8791 | 871.41 | 1.4062 | 0.4765
288.15 K, x2 = 0.9585 | 885.46 | 1.4078 | 0.4902
298.15 K, x2 = 0 | 711.08 | 1.3844 | 0.3585
298.15 K, x2 = 0.0542 | 719.96 | 1.3854 | 0.3632
298.15 K, x2 = 0.1599 | 737.23 | 1.3873 | 0.372
298.15 K, x2 = 0.1934 | 742.73 | 1.3879 | 0.3747
298.15 K, x2 = 0.3199 | 763.65 | 1.3902 | 0.3856
298.15 K, x2 = 0.4 | 777.02 | 1.3917 | 0.3926
298.15 K, x2 = 0.4789 | 790.28 | 1.3931 | 0.3996
298.15 K, x2 = 0.56 | 804.04 | 1.3947 | 0.4071
298.15 K, x2 = 0.6402 | – | 1.3965 | –
298.15 K, x2 = 0.651 | 819.66 | – | 0.4149
298.15 K, x2 = 0.7201 | 831.66 | 1.3978 | 0.4229
298.15 K, x2 = 0.8791 | 859.85 | 1.4011 | 0.4396
298.15 K, x2 = 0.9585 | 874.29 | 1.4028 | 0.4489
308.15 K, x2 = 0 | 700.4 | 1.3784 | 0.3222
308.15 K, x2 = 0.0542 | 709.15 | 1.3793 | 0.3269
308.15 K, x2 = 0.1599 | 726.3 | 1.3812 | 0.3363
308.15 K, x2 = 0.1934 | 731.73 | 1.3818 | 0.3393
308.15 K, x2 = 0.3199 | 752.47 | 1.3842 | 0.3509
308.15 K, x2 = 0.4 | 765.73 | 1.3857 | 0.3584
308.15 K, x2 = 0.4789 | 778.88 | 1.3873 | 0.3659
308.15 K, x2 = 0.56 | 792.57 | 1.3889 | 0.3736
308.15 K, x2 = 0.6402 | – | 1.3906 | –
308.15 K, x2 = 0.651 | 806.31 | – | 0.3813
308.15 K, x2 = 0.7201 | 820.22 | 1.3923 | 0.3891
308.15 K, x2 = 0.8791 | 848.66 | 1.3958 | 0.4049
308.15 K, x2 = 0.9585 | 863.3 | 1.3977 | 0.4129
